According to patent US20250145605A1, “CRYSTAL FORM AND SALT OF PHENOTHIAZINE COMPOUND, PREPARATION METHOD THEREFOR AND USE THEREOF” (CHENGDU HENGHAO INNOVATIVE SCIENCE AND TECHNOLOGY CO., LTD., priority 2022, published 2025):
pIC50: −log10 of the molar value.

Columns and labels:
[1] = test system: mouse hippocampal neuronal cells HT22; assay: Inhibition of Erastin-induced ferroptosis, CCK8 cell viability test, HT22; type: cell-based; conditions: 24 h
Procedure: (§1) Experimental method: In this example, a screening model for ferroptosis was constructed to investigate a ferroptosis inhibitor. Specifically, the screening model for ferroptosis was mainly based on the CCK8 cell viability test. Firstly, mouse hippocampal neuronal cells HT22 and human neuroblastoma SH-SY5Y cells were cultured in a dish. 80 μL of cells (5000 cells/well) in logarithmic growth phase were seeded to a 96-well plate per well, and then cultured in an incubator at 37° C., 5% CO2 to allow adhesion of cells. After 24 h, 10 μL of the compound of the present disclosure at various concentrations prepared with the specified medium and 10 μL of Erastin (ferroptosis inducer) at a final concentration of […] were added. 3 replicate wells were set for each compound to ensure the accuracy of the results. A positive control group (10 μL of a certain concentration of the compound Ferrostain-1 and 10 μL of Erastin (ferroptosis inducer) prepared with the same medium were added with reference to the above description). […] The absorbance at 450 nm was detected by a microplate reader to calculate the inhibition rate of ferroptosis by the drug. […]
(§2) The inhibition rate change curve was fitted and the IC50 was calculated by the software GraphPadPrism6.

[2] = test system: human neuroblastoma SH-SY5Y cells; assay: Inhibition of Erastin-induced ferroptosis, CCK8 cell viability test, SH-SY5Y; type: cell-based; conditions: Erastin at a final concentration of 10 M, 24 h
Procedure: as §1, §2

## CC(c1ccc(N2CCN(C)CC2)cc1)c1ccc2c(c1)Nc1ccccc1S2 (stereo not shown)
[1]; Mus musculus, HT-22, HT22, Erastin at a final concentration of 10 µM
  pIC50: 8.54
[2]; Homo sapiens
  pIC50: 8.85

## CCOC(=O)c1ccc(NC2CCCCC2)c(N)c1 [Ferrostain-1]
[1]; HT22, Erastin at a final concentration of 10 µM
  pIC50: 7.02
[2]
  pIC50: 7.27
